Where only a bound is given, the exact number is not on record here.

This passage reports Papp, EC50 and IC50 results from patent publication US10618903B2, “Heteroaryl substituted aminopyridine compounds” (BRISTOL-MYERS SQUIBB COMPANY, priority 2015, dated 2020).

Series [1] is described as follows: Caco Permeability Assay. The following applies: human, Caco-2, Caco-2 cells, 3 μM compound. The series is classed as in vitro ADME. As to the method: Thirteen to 27 days prior to assay, Caco-2 cells were seeded onto collagen-coated polycarbonate filter membranes in 24-well transwell plates at a density of 1.45×10^5 cells/cm^2, approximately 4.8×10^4 cells per well. The cells were grown in a culture medium consisting of DMEM supplemented with 10% fetal bovine serum, 10 mM HEPES, 1% nonessential amino acids, 2 mM L-glutamine, 100 U/mL penicillin-G, and 100 μg/mL streptomycin. The culture medium was replaced every 3 days and the cells were maintained at 37° C. in a 95% relative humidity and 5% CO2 atmosphere. The cells were evaluated for tight junction formation just prior to assay. The test compound was solubilized to 10 mM in 100% DMSO and diluted to 3 μM in assay buffer. Permeability studies were initiated by adding 200 μL assay buffer plus/minus compound to the apical transwell compartment and 600 μL assay buffer plus/minus compound to the basolateral compartment of the 24-well transwell low-binding cluster plate. For apical-to-basolateral (A to B) permeability (absorptive direction), buffer containing compound was placed in the apical compartment (donor wells), while buffer alone was placed in the corresponding basolateral compartments (receiver wells). For basolateral-to-apical (B to A) permeability (secretive direction), buffer containing compound was placed in the basolateral compartment (donor wells), while buffer alone was placed in the corresponding apical compartments (receiver wells). Transwells were then incubated for 2 hours at 37° C. in a 95% relative humidity and 5% CO2 atmosphere with gentle agitation. Following incubation, 100 μL was removed from each apical and basolateral compartment and transferred to 96-well low binding plates that had been previously loaded with 100 µL/well of acetonitrile containing 250 nM propranolol, 250 nM diclofenac, and 500 nM tolbutamide as internal standards. The samples were subsequently analyzed by LC-MS/MS to determine concentrations of compound.

The subject of series [2] is IL-6 levels in human whole blood stimulated with a TLR2 agonist. In words: IRAK4 Whole Blood Assay (lipoteichoic acid/TLR2-stimulated IL-6). The series is classed as cell-based. The following applies: Homo sapiens, lipoteichoic acid 10 μg/mL, IL-6 readout. In a few lines:
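ACD-A-anticoagulated human whole blood was preincubated with compounds for 60 min at 37 °C under 5% CO2. It was then stimulated with 10 μg/mL lipoteichoic acid (final) in RPMI for 5 h. IL-6 in plasma supernatants was measured by flow cytometry bead assay.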

The target of series [3] is IRAK4 (Homo sapiens (Human), UniProt Q9NWZ3). Briefly: IRAK4 Inhibition Assay. The series is classed as biochemical. Particulars: ATP 500 μM; IRAK4 0.6 nM. In a few lines:
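Mobility-shift readout: phosphorylated and unphosphorylated fluorescent peptide (1.5 μM) resolved by electrophoresis after a 60 min room-temperature reaction stopped with EDTA. Reaction holds 0.6 nM IRAK4, 500 μM ATP and 1.6% DMSO in HEPES pH 7.2/MgCl2/Brij 35/DTT buffer; percent inhibition set against vehicle and no-enzyme controls.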

Sequence of IRAK4 (Q9NWZ3 whole entry): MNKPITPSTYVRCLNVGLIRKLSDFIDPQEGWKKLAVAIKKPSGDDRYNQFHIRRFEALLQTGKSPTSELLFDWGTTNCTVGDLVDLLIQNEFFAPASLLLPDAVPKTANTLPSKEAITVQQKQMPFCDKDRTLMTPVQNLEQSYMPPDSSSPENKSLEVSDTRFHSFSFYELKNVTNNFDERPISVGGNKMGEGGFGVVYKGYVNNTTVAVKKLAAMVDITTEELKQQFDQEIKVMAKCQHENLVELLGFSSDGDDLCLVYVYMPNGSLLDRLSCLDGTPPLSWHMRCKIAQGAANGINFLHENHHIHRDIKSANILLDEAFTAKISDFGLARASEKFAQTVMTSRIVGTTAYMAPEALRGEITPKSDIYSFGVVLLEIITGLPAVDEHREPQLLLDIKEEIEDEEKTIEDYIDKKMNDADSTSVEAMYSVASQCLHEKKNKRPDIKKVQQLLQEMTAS

`CC(C)(O)[C@H](F)CNC(=O)c1cnc(-c2cnn3cc(C#N)cnc23)cc1NC1CCC1` [Example 96, (R)-6-(6-cyanopyrazolo[1,5-a]pyrimidin-3-yl)-4-(cyclobutylamino)-N-(2-fluoro-3-hydroxy-3-methylbutyl)nicotinamide]: the apparent permeability coefficient (Papp) (commonly a coefficient for how fast a substance crosses the barrier) at 2 h, 3 µM in series [1] stood at 8.3 ×10⁻⁶ cm/s. The response in series [2] was half-maximal at 0.27 µM (EC50).
Consider `CC(C)(O)[C@H](F)CNC(=O)c1cnc(-c2cnn3cc(C#N)cnc23)cc1NC1CCC(F)(F)C1O` (stereo partly drawn) [Example 107, 6-(6-cyanopyrazolo[1,5-a]pyrimidin-3-yl)-4-((3,3-difluoro-2-hydroxycyclopentyl)amino)-N—((R)-2-fluoro-3-hydroxy-3-methylbutyl)nicotinamide], for which the Papp at 2 h, 3 µM in series [1] was less than 1.5 ×10⁻⁶ cm/s. Besides, in series [2], it took 0.43 µM to reach a half-maximal effect (EC50).
In the same order, the values of `CC(C)(F)CNc1cc(-c2cnn3cc(C#N)cnc23)ncc1C(=O)NC[C@@H](F)C(C)(C)O` [Example 91, (R)-6-(6-cyanopyrazolo[1,5-a]pyrimidin-3-yl)-4-((2-fluoro-2-methylpropyl)amino)-N-(2-fluoro-3-hydroxy-3-methylbutyl)nicotinamide] are 5 ×10⁻⁶ cm/s and 2.97 µM.
In turn, `CC(=O)N[C@H]1CC[C@H](NC(=O)c2cnc(-c3cnn4cc(C#N)cnc34)cc2NC(C)C)CC1` [Example 89, N-((1r,4r)-4-acetamidocyclohexyl)-6-(6-cyanopyrazolo[1,5-a]pyrimidin-3-yl)-4-(isopropylamino)nicotinamide] displayed an apparent permeability coefficient (Papp) at 2 h, 3 µM in series [1] of less than 1.5 ×10⁻⁶ cm/s. Besides, the EC50 (commonly the concentration that produces a half-maximal response) in series [2] was determined as 2.96 µM.
For `CC(C)Nc1cc(-c2cnn3cc(Cl)cnc23)ncc1C(=O)N[C@H]1CC[C@H](C(=O)NC2CC2)CC1` [Example 28, 6-(6-chloropyrazolo[1,5-a]pyrimidin-3-yl)-N-((1r,4r)-4-(cyclopropylcarbamoyl)cyclohexyl)-4-(isopropylamino)nicotinamide], the half-inhibitory concentration (IC50) (commonly the concentration needed to halve the response being measured) in series [3] worked out at 0.005 µM. In series [2], this compound had a half-maximal effective concentration (EC50) of 1.92 µM.
As to `CC(C)(O)[C@H](F)CNC(=O)c1cnc(-c2cnc3cc(C#N)cnn23)cc1N[C@H]1CC[C@H](C(C)(C)O)CC1` [Example 204, 6-(7-cyanoimidazo[1,2-b]pyridazin-3-yl)-N—((R)-2-fluoro-3-hydroxy-3-methylbutyl)-4-(((1r,4R)-4-(2-hydroxypropan-2-yl)cyclohexyl)amino)nicotinamide], the concentration for half-maximal inhibition (IC50) in series [3] came out at 0.002 µM. This compound showed an EC50 in series [2] of 0.26 µM.
The corresponding values for `Cn1cc(Nc2cc(-c3cnc4cc(C#N)cnn34)ncc2C(=O)NC[C@@H](F)C(C)(C)O)cn1` [Example 274, (R)-6-(7-cyanoimidazo[1,2-b]pyridazin-3-yl)-N-(2-fluoro-3-hydroxy-3-methylbutyl)-4-((1-methyl-1H-pyrazol-4-yl)amino)nicotinamide] are 0.009 µM and 0.59 µM.
In the case of `CC(C)Nc1cc(-c2cnc3cc(C(F)F)cnn23)ncc1C(=O)NC[C@H](F)C(C)(C)O` [Example 209, (S)-6-(7-(difluoromethyl)imidazo[1,2-b]pyridazin-3-yl)-N-(2-fluoro-3-hydroxy-3-methylbutyl)-4-(isopropylamino)nicotinamide], the concentration for half-maximal inhibition (IC50) in series [3] turned out to be 0.004 µM. In addition, a half-maximal effect in series [2] (EC50) was put at 0.61 µM.
For `CC(C)(O)[C@H](F)CNC(=O)c1cnc(-c2cnn3cc(Cl)cnc23)cc1NC12CC(C1)C2` [Example 75, (R)-4-(bicyclo[1.1.1]pentan-1-ylamino)-6-(6-chloropyrazolo[1,5-a]pyrimidin-3-yl)-N-(2-fluoro-3-hydroxy-3-methylbutyl)nicotinamide], the IC50 in series [3] was 0.002 µM. In series [2], this compound registered an EC50 of 1.46 µM.
Take `CC(C)(O)[C@H](F)CNC(=O)c1cnc(-c2cnc3cc(C#N)cnn23)cc1NC1CCC(F)C1` (stereo partly drawn) [Example 208, 6-(7-cyanoimidazo[1,2-b]pyridazin-3-yl)-N—((R)-2-fluoro-3-hydroxy-3-methylbutyl)-4-((3-fluorocyclopentyl)amino)nicotinamide]: the half-maximal inhibitory concentration (IC50) in series [3] amounted to 0.006 µM. Moreover, the EC50 in series [2] worked out at 0.55 µM.
